Assay results from PubChem BioAssay AID1963964 (Molecular Pharmacology Branch, DTP, NCI, 2024).

System: 997726-040-R-J2-PDC tumor spheroids, viability
Assay: Anticancer human tumor 997726-040-R-J2-PDC patient-derived squamous cell lung carcinoma cell line growth inhibition [PI3K]
Conditions: spheroids with HUVEC and MSC; for IC50: curve of first compound; for viability, T/C: stronger effect = lower value
Procedure, shortened: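 High-throughput combination screen: PI3K inhibitors crossed with targeted small molecules on complex spheroids of tumor cells, HUVEC and MSCs at 37 degrees C, 5% CO2. Top concentration was at or near clinical Cmax (otherwise 10 microM), with half-log decrements.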
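Further: spheroids exposed to compounds for seven days before readout.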

IC50 (second compound 0.00316 µM): > 100 nM
IC50 (second compound 0.01 µM): 15.6 nM
IC50 (second compound 0.0316 µM): < 0.316 nM
IC50 (second compound 0.1 µM): < 0.316 nM
IC50 (second compound 0.316 µM): < 0.316 nM
IC50 (second compound 1 µM): < 0.316 nM
SMILES: CC(=O)c1c(C)c2cnc(Nc3ccc(N4CCNCC4)cn3)nc2n(C2CCCC2)c1=O + COc1c(OCCCN2CCOCC2)ccc2c3n(c(=NC(=O)c4cnc(N)nc4)nc12)CCN3
viability, T/C (second compound 0.00316 µM, first compound 0.000316 µM): 73%
viability, T/C (second compound 0.00316 µM, first compound 0.001 µM): 77.6%
viability, T/C (second compound 0.00316 µM, first compound 0.00316 µM): 69.8%
viability, T/C (second compound 0.00316 µM, first compound 0.01 µM): 75%
viability, T/C (second compound 0.00316 µM, first compound 0.0316 µM): 60.1%
viability, T/C (second compound 0.00316 µM, first compound 0.1 µM): 52.4%
viability, T/C (second compound 0.01 µM, first compound 0.000316 µM): 62.1%
viability, T/C (second compound 0.01 µM, first compound 0.001 µM): 60.9%
viability, T/C (second compound 0.01 µM, first compound 0.00316 µM): 53.8%
viability, T/C (second compound 0.01 µM, first compound 0.01 µM): 55.8%
viability, T/C (second compound 0.01 µM, first compound 0.0316 µM): 44.4%
viability, T/C (second compound 0.01 µM, first compound 0.1 µM): 39.2%
viability, T/C (second compound 0.0316 µM, first compound 0.000316 µM): 32.2%
viability, T/C (second compound 0.0316 µM, first compound 0.001 µM): 42.1%
viability, T/C (second compound 0.0316 µM, first compound 0.00316 µM): 35.3%
viability, T/C (second compound 0.0316 µM, first compound 0.01 µM): 34.1%
viability, T/C (second compound 0.0316 µM, first compound 0.0316 µM): 28.1%
viability, T/C (second compound 0.0316 µM, first compound 0.1 µM): 25.7%
viability, T/C (second compound 0.1 µM, first compound 0.000316 µM): 20.6%
viability, T/C (second compound 0.1 µM, first compound 0.001 µM): 23.3%
viability, T/C (second compound 0.1 µM, first compound 0.00316 µM): 23.9%
viability, T/C (second compound 0.1 µM, first compound 0.01 µM): 21%
viability, T/C (second compound 0.1 µM, first compound 0.0316 µM): 18.7%
viability, T/C (second compound 0.1 µM, first compound 0.1 µM): 17.1%
viability, T/C (second compound 0.316 µM, first compound 0.000316 µM): 5.23%
viability, T/C (second compound 0.316 µM, first compound 0.001 µM): 5.65%
viability, T/C (second compound 0.316 µM, first compound 0.00316 µM): 6.03%
viability, T/C (second compound 0.316 µM, first compound 0.01 µM): 5.28%
viability, T/C (second compound 0.316 µM, first compound 0.0316 µM): 5.14%
viability, T/C (second compound 0.316 µM, first compound 0.1 µM): 3.76%
viability, T/C (second compound 1 µM, first compound 0.000316 µM): 1.5%
viability, T/C (second compound 1 µM, first compound 0.001 µM): 1.26%
viability, T/C (second compound 1 µM, first compound 0.00316 µM): 1.01%
viability, T/C (second compound 1 µM, first compound 0.01 µM): 1.2%
viability, T/C (second compound 1 µM, first compound 0.0316 µM): 1.19%
viability, T/C (second compound 1 µM, first compound 0.1 µM): 1.06%
